# Assay results: PMC12211128, “Safety, tolerability, pharmacokinetic and pharmacodynamic effects of the muscarinic M1 positive allosteric modulator VU0467319 for Alzheimer’s disease: a single ascending-dose study in healthy participants” (Alzheimer's Research & Therapy, 2025)
# Experiments:
# [1] = test system: healthy participants; test: Vital signs; assay type: in vivo, human
# Experimental: Safety and tolerability were assessed throughout the study via treatment emergent adverse event (TEAE) monitoring, vital signs (blood pressure, pulse rate, respiration rate, oral temperature), physical examinations, 12-lead ECGs, and clinical laboratory parameters including complete blood count (CBC), coagulation, hematology, clinical chemistry assessments, and urinalysis. Safety laboratory tests were drawn at pre-dose and at 5, 24, 36 and 144-hours post-dose for 60–400 mg Cohorts; and at 24, 48, 72 and 144-hours post-dose for the 600 mg and Food Effect Cohort. […] All adverse events (AEs) were assessed by the investigator for severity and relationship to study medication or study procedures.
# All AEs were coded using the Medical Dictionary for Regulatory Activities (MedDRA) version 22.0. All AEs were listed, and the emergence of TEAEs were categorized by body system affected and analyzed to determine whether they were related to treatment. […] Assessment of the grade of toxicity or relation to the study drug for each adverse event was determined by the Investigator. […] Changes in vital signs from pre-dose to 48 h post-dose were placed into 10-time bins and assessed using mixed-measures ANOVA with the time bins as the within-subjects factor and dose as the between-subjects factor. […]
# [2] = test system: healthy participants; test: Selective Reminding Task (SRT); assay type: in vivo, human; settings: for SRT Delayed Recall / SRT Immediate Recall / SRT Recall Consistency / SRT Recall Failure: mean (SD)
# Source text: The Selective Reminding Task (SRT; [36]) was used to test immediate and delayed episodic memory. Participants were read a list of 16 words and must immediately recall the list across eight trials, then again after a 20-minute delay. The outcome measures were the SRT total immediate recall across the eight trials, recall consistency as the number of words correctly recalled on two sequential trials, recall failure as the number of words not recalled on two sequential trials, and the delayed recall after the 20-min delay.
# Cognitive data: In this exploratory analysis, each outcome variable of the cognitive data was examined in a mixed model analysis of variance with one between-subjects factor of VU319 dose (0, 60, 120, 240, 400, 600 mg) and a within-subjects factor of testing session (pre-dose vs. post-dost administration). Post-hoc analysis compared each of the VU319 dose cohorts against the placebo group. Because the participants were healthy adults with normal cognitive function, we considered effects between no reductions in function to small improvement (d = 0.0–0.20) to be a positive result. For the food effect study, only the participants who received VU319 were examined due to the disproportionately small placebo group (n = 2). A within-subjects ANOVA including food condition (fasted/fed) and testing session (pre-dose vs. post-dose administration) was performed on each outcome variable.
# The Selective Reminding Task (SRT; (Buschke & Fuld, 1974)) was used to test immediate and delayed episodic recall. Participants were read a list of 16 words and must immediately recall the list across 8 trials. […] Upon completing the immediate recall portion of the SRT and after a 20‐minute delay, participants were asked to complete a single delayed recall trial. SRT total immediate recall was analyzed using the number of correctly recalled words across trials 1–8, total immediate recall consistency was analyzed using the number of words correctly recalled on two sequential trials across trials 1–8, SRT total immediate recall failure was analyzed using the number of words not recalled on two sequential trials across trials 1–8, and total delayed recall was analyzed using the number of words correctly recalled after a 20-min delay.
# [3] = Food effect study 120 mg, Fasting, Post-Drug
# [4] = Food effect study 120 mg, Fasting, Pre-Drug
# [5] = Food effect study 120 mg, Fed, Post-Drug
# [6] = Food effect study 120 mg, Fed, Pre-Drug
smiles,measurement,setting,value
Cn1cc2c(-c3cc(F)c(CN4Cc5ncccc5C4=O)c(F)c3)cccc2n1 [VU319],vitals measurements over the first 48 h post-dose,[1]; SAD study,no significant dose-by-time interactions
same,vitals measurements over the first 48 h post-dose,[1]; food effect study,no significant dose-by-time interactions
same,SRT Delayed Recall,[2]; [3],11.3 (3.97)
same,SRT Immediate Recall,[2]; [3],88.9 (19.83)
same,SRT Recall Consistency,[2]; [3],55.7 (26.22)
same,SRT Recall Failure,[2]; [3],10.2 (9.74)
same,SRT Delayed Recall,[2]; [4],11.5 (3.69)
same,SRT Immediate Recall,[2]; [4],86.6 (17.61)
same,SRT Recall Consistency,[2]; [4],51.1 (24.64)
same,SRT Recall Failure,[2]; [4],9.4 (8.54)
same,SRT Delayed Recall,[2]; [5],10.9 (3.92)
same,SRT Immediate Recall,[2]; [5],88.9 (20.45)
same,SRT Recall Consistency,[2]; [5],53.4 (27.22)
same,SRT Recall Failure,[2]; [5],8.3 (10.58)
same,SRT Delayed Recall,[2]; [6],11.2 (3.33)
same,SRT Immediate Recall,[2]; [6],88.7 (13.59)
same,SRT Recall Consistency,[2]; [6],54 (18.33)
same,SRT Recall Failure,[2]; [6],8 (6.11)
same,SRT Delayed Recall,"[2]; SAD study, 60 mg, Post-Drug",8.83 (3.55)
same,SRT Immediate Recall,"[2]; SAD study, 60 mg, Post-Drug",71.67 (14.95)
same,SRT Recall Consistency,"[2]; SAD study, 60 mg, Post-Drug",35.33 (18.32)
same,SRT Recall Failure,"[2]; SAD study, 60 mg, Post-Drug",19.83 (9.37)
same,SRT Delayed Recall,"[2]; SAD study, 60 mg, Pre-Drug",9 (3.52)
same,SRT Immediate Recall,"[2]; SAD study, 60 mg, Pre-Drug",79.83 (13.18)
same,SRT Recall Consistency,"[2]; SAD study, 60 mg, Pre-Drug",44 (22.93)
same,SRT Recall Failure,"[2]; SAD study, 60 mg, Pre-Drug",13.5 (4.46)
same,SRT Delayed Recall,"[2]; SAD study, 120 mg, Post-Drug",9.5 (5.86)
same,SRT Immediate Recall,"[2]; SAD study, 120 mg, Post-Drug",84 (19.55)
same,SRT Recall Consistency,"[2]; SAD study, 120 mg, Post-Drug",49.33 (25.15)
same,SRT Recall Failure,"[2]; SAD study, 120 mg, Post-Drug",12.5 (10.78)
same,SRT Delayed Recall,"[2]; SAD study, 120 mg, Pre-Drug",10.17 (5.42)
same,SRT Immediate Recall,"[2]; SAD study, 120 mg, Pre-Drug",84.67 (20.24)
same,SRT Recall Consistency,"[2]; SAD study, 120 mg, Pre-Drug",51.67 (27.6)
same,SRT Recall Failure,"[2]; SAD study, 120 mg, Pre-Drug",13 (9.76)
same,SRT Delayed Recall,"[2]; SAD study, 240 mg, Post-Drug",9 (2.45)
same,SRT Immediate Recall,"[2]; SAD study, 240 mg, Post-Drug",80.67 (13.65)
same,SRT Recall Consistency,"[2]; SAD study, 240 mg, Post-Drug",41.5 (16.11)
same,SRT Recall Failure,"[2]; SAD study, 240 mg, Post-Drug",10.83 (10.83)
same,SRT Delayed Recall,"[2]; SAD study, 240 mg, Pre-Drug",10.67 (1.86)
same,SRT Immediate Recall,"[2]; SAD study, 240 mg, Pre-Drug",87.33 (11.38)
same,SRT Recall Consistency,"[2]; SAD study, 240 mg, Pre-Drug",54.33 (13.31)
same,SRT Recall Failure,"[2]; SAD study, 240 mg, Pre-Drug",10.83 (7.73)
same,SRT Delayed Recall,"[2]; SAD study, 400 mg, Post-Drug",7.83 (3.87)
same,SRT Immediate Recall,"[2]; SAD study, 400 mg, Post-Drug",70.83 (16.03)
same,SRT Recall Consistency,"[2]; SAD study, 400 mg, Post-Drug",33.33 (18.24)
same,SRT Recall Failure,"[2]; SAD study, 400 mg, Post-Drug",20 (11.15)
same,SRT Delayed Recall,"[2]; SAD study, 400 mg, Pre-Drug",8.83 (4.79)
same,SRT Immediate Recall,"[2]; SAD study, 400 mg, Pre-Drug",76.33 (24.51)
same,SRT Recall Consistency,"[2]; SAD study, 400 mg, Pre-Drug",42.33 (29.85)
same,SRT Recall Failure,"[2]; SAD study, 400 mg, Pre-Drug",19 (15.66)
same,SRT Delayed Recall,"[2]; SAD study, 600 mg, Post-Drug",8.67 (4.8)
same,SRT Immediate Recall,"[2]; SAD study, 600 mg, Post-Drug",85.83 (21.7)
same,SRT Recall Consistency,"[2]; SAD study, 600 mg, Post-Drug",51 (27.8)
same,SRT Recall Failure,"[2]; SAD study, 600 mg, Post-Drug",10.67 (12.58)
same,SRT Delayed Recall,"[2]; SAD study, 600 mg, Pre-Drug",11.83 (1.94)
same,SRT Immediate Recall,"[2]; SAD study, 600 mg, Pre-Drug",91.17 (11.81)
same,SRT Recall Consistency,"[2]; SAD study, 600 mg, Pre-Drug",59.83 (13.39)
same,SRT Recall Failure,"[2]; SAD study, 600 mg, Pre-Drug",8.17 (5.27)
same,"SRT four outcome measures, effect of dose","[2]; SAD study, all p > 0.2","did not show a significant effect of dose, nor dose by time"
same,"SRT performance, effect of food or time","[2]; food effect study, 120 mg",no impact of food or time
